The term melting point denotes the temperature, or range, at which the solid turns liquid.

SMILES strings stand for the structures. Where two headings read alike, the source gives them in different places. Where only a bound is given, the exact number is not on record here.

Series [1] relates to CaSki cells. More on the design: method as in Kong et al., 2021. To be noted: MTT, ref Kong et al., 2021, read-out: Half inhibitory concentration (IC50), CaSki; cited from earlier work.
Series [2] has as its system SiHa cells. More on the design: method as in Kong et al., 2021. The following applies: MTT, ref Kong et al., 2021, read-out: Half inhibitory concentration (IC50), SiHa; cited from earlier work.
Series [3] relates to LO2 cells. More on the design: method as in Kong et al., 2021. To be noted: normal liver LO2 cells, MTT; ref Kong et al., 2021; read-out: Half inhibitory concentration (IC50), LO2; cited from earlier work.
Series [4] has as its system C-33A cells. More on the design: method as in Kong et al., 2021. The following applies: MTT, ref Kong et al., 2021, read-out: Half inhibitory concentration (IC50), C-33A; cited from earlier work.
Series [5] deals with 7402 cells. More on the design: method as in Kong et al., 2021. To be noted: MTT, ref Kong et al., 2021, read-out: Half inhibitory concentration (IC50), 7402; cited from earlier work.
Series [6] concerns HeLa cells. More on the design: method as in Kong et al., 2021. To be noted: MTT, ref Kong et al., 2021, read-out: Half inhibitory concentration (IC50), HeLa; cited from earlier work.
Series [7] deals with HepG2 cells. More on the design: method as in Kong et al., 2021. The following applies: MTT, ref Kong et al., 2021, read-out: Half inhibitory concentration (IC50), HepG2; cited from earlier work.
For series [8], the system named is CaSki cells. Put plainly: MTT cell viability assay, CaSki. To be noted: Homo sapiens, Ca-Ski, 48 h, read-out: Half inhibitory concentration (IC50), CaSki. It counts as cell-based. The protocol:
(§1) HepG2 (human epidermoid hepatocellular carcinoma cell), 7402 (human epidermoid hepatocellular carcinoma cell), C-33A (human epidermoid cervical carcinoma cell), and HeLa (human epidermoid cervical adenocarcinoma cell) were incubated in Dulbecco’s modified Eagle’s medium (DMEM), which was purchased from Gibco (Grand Island, NY, United States). SiHa cells (human epidermoid cervical squamous cell carcinoma) were incubated in minimum essential medium (MEM, also from Gibco). CaSki (human epidermoid cervical carcinoma cell) and LO2 (human normal liver cell) were incubated in minimum essential medium (MEM, also from Gibco). All cells were maintained at 37°C in a humidified incubator with 5% carbon dioxide, and the media contained 10% fetal bovine serum (FBS, Corning, United States) and 1% penicillin–streptomycin antibiotic solution (Corning, United States). SiHa and CaSki were bought from the China Center for Type Culture Collection (CCTCC). The other five types of cancer cell lines were obtained from the Experiment Center of Medicine, Sinopharm Dongfeng Hospital, Hubei University of Medicine. The compounds were dissolved in dimethyl sulfoxide (DMSO, MP Biomedicals, United States), and cisplatin was purchased from Aladdin, Shanghai, China. The control (0 μM) group was treated with DMSO only in the same conditions, and the DMSO content in the medium was less than 0.1%.
(§2) Cell viability was measured by a 3-(4,5-dimethylthiazol-2-yl)-2,5-diphenyltetrazolium bromide (MTT, MultiSciences, China) assay. The specific experimental steps referred to our previous research ([Zhu et al., 2020]). For each cell line, cells were digested and seeded in 96-well plates at a density of 1 × 10^3 cells/well. […] Then, the formed formazan crystals were dissolved in DMSO, and the plates were estimated in a […] microplate reader (BioTek Inc., Bio-Tek MQX200) at a wavelength of 490 nm. Optical density (OD) values were obtained, and the inhibition rate and IC50 of each compound on different cells were calculated by GraphPad Prism 8.0.1 software. […]
On the technique in general: Tetrazolium assays rely on reduction of a dye to a coloured formazan, in cell work by metabolically active cells.

Series [9] deals with HeLa cells. Put plainly: MTT cell viability assay, HeLa. It counts as cell-based. The following applies: Homo sapiens, 48 h, read-out: Half inhibitory concentration (IC50), HeLa. Here is the method:
as §1, §2

The subject of series [10] is HepG2 cells. Put plainly: MTT cell viability assay, HepG2. The following applies: Homo sapiens, 48 h, read-out: Half inhibitory concentration (IC50), HepG2. The format is cell-based. Here is the method: as §1, §2
Series [11] deals with C-33A cells. Put plainly: MTT cell viability assay, C-33A. It counts as cell-based. To be noted: Homo sapiens, 48 h, read-out: Half inhibitory concentration (IC50), C-33A. The protocol:
as §1, §2

The test system of series [12] is LO2 cells. Put plainly: MTT cell viability assay, normal liver LO2. The format is cell-based, human. The following applies: Homo sapiens, L02, normal liver LO2 cells, 48 h, read-out: Half inhibitory concentration (IC50), LO2. The protocol:
as §1
Cell viability was measured by a 3-(4,5-dimethylthiazol-2-yl)-2,5-diphenyltetrazolium bromide (MTT, MultiSciences, China) assay. The specific experimental steps referred to our previous research ([Zhu et al., 2020]). For each cell line, cells were digested and seeded in 96-well plates at a density of 1 × 10^3 cells/well. After 24 h of culture, the cells were adherent and treated with varying concentrations of RPDPRH (0, 3.125, 6.25, 12.5, 25, 50, and 100 μM). Cells without treatment were used as a solvent control group (0 μM, DMSO) and those with cisplatin treatment served as a positive control. After 48 h of treatment, MTT solution was added and incubated for 4 h. Then, the formed formazan crystals were dissolved in DMSO, and the plates were estimated in a […] microplate reader (BioTek Inc., Bio-Tek MQX200) at a wavelength of 490 nm. Optical density (OD) values were obtained, and the inhibition rate and IC50 of each compound on different cells were calculated by GraphPad Prism 8.0.1 software. Cell inhibition rate (%) = 1− [(OD experimental-OD blank)/(OD control-OD blank)] × 100%.

Series [13] deals with 7402 cells. Put plainly: MTT cell viability assay, 7402. The format is cell-based. To be noted: Homo sapiens, 48 h, read-out: Half inhibitory concentration (IC50), 7402. The protocol: as §1, §2
Series [14] relates to SiHa cells. Kind of series: MTT cell viability assay, SiHa. The following applies: Homo sapiens, 48 h, read-out: Half inhibitory concentration (IC50), SiHa. It counts as cell-based. Here is the method:
as §1, §2

Consider `N.N.[Cl][Pt][Cl]` [Cisplatin, cisplatin, reference compound], for which the IC50 in the series with CaSki cells [1] is 17.5 µM; with SiHa cells [2] it was 37.1 µM; in the series with LO2 cells [3], 17.3 µM; with C-33A cells [4] it was 48.2 µM; with 7402 cells [5], 48.5 µM; in the series with HeLa cells [6], 47.5 µM. The IC50 with HepG2 cells [7] is 19.3 µM.

As for `O=C1/C(=C/c2ccccc2)CC(/C=C/c2ccccc2)(C(=O)NC2CCCCC2)N1c1ccc(Cl)cc1` (stereo not drawn) [RPDPRI, (2E, 4E)-4-benzylidene-1-(4-chlorophenyl)-N-cyclohexyl-5-oxo-2-styrylpyrrolidine-2-carboxamide], the melting point is 209 to 210 °C. Further, in the series with CaSki cells [8], the IC50 is over 100 µM. In addition, the IC50 in the series with HeLa cells [9] was over 100 µM. Further, in the series with HepG2 cells [10], the IC50 is over 100 µM. For the same compound, the IC50 with C-33A cells [11] was over 100 µM. Further, the IC50 in the series with LO2 cells [12] is over 100 µM. In addition, in the series with 7402 cells [13], the IC50 is over 100 µM. Also, in the series with SiHa cells [14], the IC50 was over 100 µM.

With `O=C1/C(=C/c2ccc(Cl)cc2)CC(/C=C/c2ccccc2)(C(=O)NC2CCCCC2)N1c1ccc(Cl)cc1` (stereo not drawn) [RPDPRK, (2E, 4E)-4-(4-chlorobenzylidene)-1-(4-chlorophenyl)-N-cyclohexyl-5-oxo-2-styryl pyrrolidine-2-carboxamide], the IC50 in the series with CaSki cells [8] is 46.4 µM; with HeLa cells [9] it was 44.7 µM; in the series on HepG2 cells [10], over 100 µM; with C-33A cells [11] it was 89.5 µM; in the series with LO2 cells [12] it was over 100 µM; with 7402 cells [13] it was over 100 µM. In the series on SiHa cells [14], the IC50 amounted to 67.3 µM.

Turning to `O=C1/C(=C/c2ccccc2)CC(/C=C/c2ccc(Cl)cc2)(C(=O)NC2CCCCC2)N1c1ccc(F)cc1` (stereo not drawn) [RPDPRO, (2E, 4E)-2-(4-chlorostyryl)-4-benzylidene-N-cyclohexyl-1-(4-fluorophenyl)-5-oxopyrrolidine-2-carboxamide], the melting point is 142 to 144 °C. In the series on CaSki cells [1], the IC50 was 9.15 µM. In addition, the IC50 in the series with SiHa cells [2] was 12.5 µM. Besides, the IC50 with LO2 cells [3] is 86.8 µM. Besides, the IC50 in the series on C-33A cells [4] was 5.56 µM. Besides, the IC50 in the series on 7402 cells [5] was 31.2 µM. For the same compound, the IC50 in the series with HeLa cells [6] is 21.4 µM. Further, the IC50 with HepG2 cells [7] is 14.5 µM.

The values are drawn from paper PMC9157788, “Design, Synthesis, and Apoptosis-Promoting Effect Evaluation of Rhopaladins’ Analog 4-Arylidene-5-Oxopyrrolidine Derivatives” (Frontiers in Chemistry, 2022).
